Data reported in patent publication US20240263147A1, “CARDIAC ORGANOID AND ANTI-ELECTRO-MITOCHONDRIAL DESYNCHRONIZATION THERAPY” (YISSUM RESEARCH DEVELOPMENT COMPANY OF THE HEBREW …, priority 2021, published 2024).
“Also recorded” adds a separate entry of the source.

Experiments:
[1] = test system: vascularized cardiac organoids; assay: Integrated metabolic-electro-mechanical sensor chip: simultaneous contraction, field potential and interstitial oxygen; assay type: cell-based, human; conditions: for reversal of mitoxantrone-induced arrhythmic behavior: 100 μM metformin concurrent with 10 μM mitoxantrone
[2] = test system: vascularized cardiac organoids; assay: as above; assay type: cell-based, human; conditions: 10 μM KB-R7943
Experimental: The MEA design and printed connections enabled access to 45 different electrodes inside the platform intermittently via a compatible sensor circuit (FIGS. 9A-9B). Spontaneous cardiac field potentials (FPs) were recorded from cardiac organoids using an integrated signal conditioning circuit (AD8232®), with a 2-pole adjustable high-pass filter, 3-pole adjustable low-pass filter, adjustable gain, and medical instrumentation amplifiers to extract, amplify, and filter the extracellular field potential of the organoids remotely within the confined well. […] Spontaneous cardiac field potentials were measured at 100 Hz sampling rate in each microwell. Field potential rhythm frequency was calculated in real-time using a custom-made MATLAB® software imposing Fourier Transformation (FFT) on the evolving kinetic data (FIGS. 9C-9D).
Real-time oxygen measurement was performed based on previously described elements. Briefly, phosphorescent ruthenium microprobes (CPOx-50-RuP) show a decrease in phosphorescence decay time as a function of oxygen concentration, allowing to measure the oxygen content. Controlled sinusoidal modulated 532-nm LED signal excites the embedded oxygen sensors and emits a sinusoidal amplitude-modulated light at 605 nm that is shifted in phase due to oxygen quenching. A phase shift is measured between the emission hardware-filtered first detector (PMT), and a second excitation detector (cPMT). […] Measurements were carried out at a 10 Hz sampling rate. Contraction rate and oxygen rhythm frequency were calculated in real-time using a custom-made MATLAB® software imposing Fourier Transformation (FFT) on the evolving kinetic data. Using custom MATLAB code, we calculated the cardiac organoid contraction rates directly from our oxygen reader based on the emission intensity measured in peak-to-peak voltage from the oxygen bead and its displacement using the second PMT system. Cardiac displacement was measured by the embedded oxygen beads inside the cardiac organoids during a contraction. When the beads move at different distances from the focal point, changes in peak-to-peak voltage occurred leading to the detection of the contraction behavior.
For simultaneous real-time oxygen, contraction rate, and field potential measurements, cardiac organoids were cultured in RPMI supplemented with B27 minus insulin, 5 ng/ml VEGF and 0.1% DMSO (control) or 10 μM KB-R7943 mesylate. Real-time oxygen, contraction rate, and field potential were measured after 0, 15, and 25 minutes of exposure to DMSO (control) or 10 μM KB-R7943 mesylate.

[3] = test system: vascularized cardiac organoids; assay: Metabolic flux balance analysis and ATP production in cardiac organoids; assay type: cell-based, human; conditions: 10 μM KB-R7943, within 20 minutes of exposure
Experimental: Amperometric 4-analytes sensors (B.LV5) were purchased from Innovative Sensor Technology (IST, Switzerland). Measurements were carried out and calibrated to sensitivity decrease by an on-chip potentiostat (IST, Switzerland). Oxygen, glucose, lactate, and glutamine fluxes were measured by calculating the change in metabolite concentration over time. Glutamine measurement allowed us to calculate lipid metabolism fluxes. Oxidative phosphorylation flux was calculated by dividing the oxygen uptake rate by six. The inventors estimated 32 ATP molecules generated by the complete oxidation of glucose. Glycolysis flux was calculated by dividing the lactate production rate by two, with the maximal rate defined by glucose uptake rate minus the oxidative phosphorylation flux. ATP production in glycolysis was estimated to be two molecules per molecule of glucose. Glutaminolysis was calculated directly by glutamine uptake. ATP production in glutaminolysis was estimated to be three molecules per molecule of lactate generated.

[4] = test system: hiPSC-derived cardiomyocytes; assay: Live imaging of mitochondrial calcium (Rhod-2AM) and visual contraction analysis in 2D culture; assay type: cell-based, human; conditions: for decrease of magnitude of [Ca2+]m oscillations / reduction of contraction magnitude: n=4
Experimental: (§1) Fast phase-contrast imaging (17 frames per second) was performed at suitable magnification using an LSM-700 Zeiss microscope. The time-lapse micrograph was analyzed using a custom MATLAB® code. Briefly, multiple regions of interest (ROIs) were selected on the cardiac tissue borders, producing a distinct area with changes representative of the cardiac contraction. Dynamic changes in the ROI intensity were measured over time and converted into beating rates using Fast Fourier Transformation (FFT). Contractility was calculated based on the frequency amplitude magnitude.
For mitochondrial calcium live imaging, different hiPSC-derived cardiomyocytes were cultured in RPMI supplemented with B27 minus insulin, and 0.1% DMSO (control) or […] KB-R7943 mesylate (Tocris Bioscieice, USA), Mean mitochondrial calcium was measured using live imaging of Rhod-2AM dye after 0, 30, and 90 seconds of exposure to DMSO (control) or 10 μM MCU inhibitor KB-R7943 mesylate
Mitochondrial calcium uptake within human iPSC-derived cardiomyocytes was measured using Rhod-2AM dye according to the manufacturer's instructions (Abcam, USA). Cells were loaded with […] Rhod-2AM in RPMI supplemented with B27-I for 30 min at 37° C., washed with PBS, and incubated with RPMI supplemented with […] KB-R7943 or 0.1% DMSO, and B27-I. Measurements were taken continuously using an incubated LSM-700 Zeiss microscope at 5% CO2 and 37° C. Rhod-2AM measurement was conducted by excitation at 552 nm at a 10 Hz sampling rate. Mitochondrial calcium uptake was calculated by the change of the mean emission intensity at 581 nm. The time-lapse micrograph was analyzed using multiple regions of interest (ROIs) and was selected based on Mitotracker staining, producing a distinct area with changes representative to mitochondrial networks. Changes in fluorescent intensity were used to determine oscillation rate and amplitude.

[5] = test system: hiPSC-derived vascularized cardiac organoids; assay: Beating of vascularized cardiac organoids under pharmaceutical stimulation; assay type: cell-based, human
Experimental: hiPS-derived cardiomyocytes and microvascular cardiac endothelial cells (VEC Technologies, USA) were counted and mixed in a 2:1 ratio in growth factor reduced Matrigel (BD Biosciences, San Jose, CA) at a cell density of 6.8×10^4 cells per μl. A volume of 1.1 μl of the gel-imbedded mixture (7.48×10^4 cells) was injected into each microwell and left to form spontaneously in RPMI-1640 supplemented with B27 minus insulin and 5 ng/ml vascular endothelial growth factor (VEGF-A, Peprotech) until their spontaneous beating was regained after 6-10 days.
as §1

[6] = test system: hiPSC-derived cardiomyocytes; assay: Live imaging of mitochondrial calcium (Rhod-2AM) and visual contraction analysis in 2D culture; assay type: cell-based, human; conditions: n=4
[7] = test system: porcine cardiac tissue
Text: The tissue was procured post-mortem from a 70 kg domestic female pig that underwent a laparoscopic liver operation (Ethical approval number MD-21-16533-3) and was euthanized using a lethal dose of potassium chloride. […] The lung was retracted, and the pericardium was incised.
The anterior wall of the left ventricle was incised from base to apex and several slices measuring 2-3 mm in length and 1-2 mm thick were obtained using a #10 scalpel blade. Cardiac tissues were further cut into 500±200 μm thick slices and washed thoroughly with 37° C. pre-warmed ex-vivo medium composed of M199 medium, supplemented with 1×insulin-transferrin-selenium (ITS), 10% fetal bovine serum (FBS), and 5 ng/mL vascular endothelial growth factor (VEGF), and 10 mM of 2-[4-(2-hydroxyethyl)piperazin-1-yl]ethanesulfonic acid (HEPES).
The cardiac explants were then embedded with oxygen sensors, placed on the MEAs chip, and transferred to a 37° C. temperature-controlled incubation chamber that contains M199 medium supplemented with 1× ITS, 10% FBS, 5 ng/mL VEGF, and 10 mM HEPES to support long term function, as previously described. The explant was continuously point-stimulated at 2 Hz cycle length. Contraction, field potential, and oxygen were assessed using the integrated metabolic-electro-mechanical sensor chip. […]

`N=C(N)SCCc1ccc(OCc2ccc([N+](=O)[O-])cc2)cc1` [KB-R7943] was tested. Which “increase of contraction frequency, oxygen oscillation rate and field potential oscillation frequency (all three rates)” value ([1]; 10 μM KB-R7943, within 35 minutes of exposure, n=9) did it give?
Its value is 2.5 fold.

And the “effect on coupling of mitochondrial and electro-mechanical activity” value [2]?
The value was “caused uncoupling between mitochondrial and electro-mechanical activity, resulting in arrhythmic cardiac behavior”.

What about the “effect on magnitude of organoid contraction and depolarization” value [2] of the same compound?
The value was “comparable and parallel decrease”.

And the “effect on oxygen uptake of the cardiac organoid” value [2]?
The value was “progressive decrease in the oxygen uptake”.

And the “effect on magnitude of oxygen oscillations” value ([2]; n=9)?
The value was “significantly and progressively decreased”.

And the “effect on ATP generation (production)” value [3]?
The value was “decrease in ATP production; also recorded: decrease in ATP generation”.

What about the “effect on [Ca2+]m concentration” value ([4]; 10 μM KB-R7943) of the same compound?
Its value is “no significant difference”.

And the “decrease of magnitude of [Ca2+]m oscillations” value ([4]; 10 μM KB-R7943, 30 seconds)?
Its value is 60%.

And the “reduction of contraction magnitude” value ([4]; 10 μM KB-R7943, 30 seconds)?
Its value is 45%.

And the “decrease of magnitude of [Ca2+]m oscillations” value ([4]; 10 μM KB-R7943, 90 seconds)?
Its value is 78%.

What about the “reduction of contraction magnitude” value ([4]; 10 μM KB-R7943, 90 seconds) of the same compound?
The value was 70%.

What about the “effect on cardiomyocyte contractility and [Ca2+]m oscillation amplitude” value ([4]; 10 μM KB-R7943, acute) of the same compound?
Its value is “dramatically decreases cardiomyocyte contractility, and [Ca^2+]m oscillation amplitude; also recorded: decreases the magnitude of cardiomyocyte contraction”.

What about the “effect on cardiomyocyte contraction frequency (rate)” value ([4]; 10 μM KB-R7943, short term exposure) of the same compound?
The value was “without affecting contraction rate; also recorded: did not significantly affect”.

Which “decrease of contraction / contraction amplitude” value ([5]; 10 μM amiodarone, n=6) does the source give for `CCCCc1oc2ccccc2c1C(=O)c1cc(I)c(OCCN(CC)CC)c(I)c1` [amiodarone] here?
The value was 28%.

What about the contraction rate ([5]; 10 μM amiodarone, spontaneous beating 66±5 bpm, n=6) of the same compound?
The contraction rate was 52±4 bpm.

For `CNC[C@H](O)c1ccc(O)c(O)c1` [epinephrine], which “effect on contractility and contraction rate” value [1] is on record?
The value was “increases the contractility and contraction rate”.

And the “effect on mean interstitial oxygen concentration” value [1]?
Its value is “decreasing the mean interstitial oxygen concentration”.

And the increase of contraction [1]?
Its increase of contraction is 33%.

And the organoid contraction frequency [1]?
The organoid contraction frequency was 1.95 Hz.

And the “contraction (beating) rate” value [5]?
The value was 88±7 bpm.

Which “reversal of mitoxantrone-induced arrhythmic behavior” value [1] does the source give for `CN(C)C(=N)N=C(N)N` [metformin] here?
Its value is “reverts the effect, displaying regular heart contraction and field potential; also recorded: reversed this effect”.

What about the “reversal of mitoxantrone-induced arrhythmic behavior” value ([1]; listed as Metformin) of the same compound?
The value was “rescues the arrhythmic cardiac behavior”.

What about the beating rate ([1]; metformin (100 μM) combined with mitoxantrone (10 μM), from 82 BPM) of the same compound?
Its beating rate is 61 BPM.

What about the “increase in mean mitochondrial calcium content” value ([6]; 100 μM metformin added to 10 μM mitoxantrone treatment) of the same compound?
Its value is 3.4 fold.

And the beating frequency ([7]; 100 μM metformin concurrent with 10 μM mitoxantrone)?
Its beating frequency is 1.4 Hz.

With `O=C1c2c(O)ccc(O)c2C(=O)c2c(NCCNCCO)ccc(NCCNCCO)c21` [mitoxantrone] as the compound, how does the “effect on mechanical contraction, electrical depolarization and oxygen concentration” value ([1]; mitoxantrone exposure (10 μM)) read?
The value was “markedly decreased”.

What about the contraction rate ([1]; mitoxantrone exposure (10 μM), from 53 BPM) of the same compound?
The contraction rate was 79 BPM.

And the “decrease in mitochondrial calcium” value ([6]; 10 μM mitoxantrone alone)?
Its value is 79%.

And the “beating frequency (cardiac rhythm)” value ([7]; female, pig, 10 μM)?
Its value is 2 Hz.
